The text below walks through data of US20100137313A1 (ASTRAZENECA AB, priority 2008, published 2010).

Each structure is given as a SMILES string.

Sequence of S. pneumoniae Topoisomerase IV ATPase (ParE) (Q59961 whole entry): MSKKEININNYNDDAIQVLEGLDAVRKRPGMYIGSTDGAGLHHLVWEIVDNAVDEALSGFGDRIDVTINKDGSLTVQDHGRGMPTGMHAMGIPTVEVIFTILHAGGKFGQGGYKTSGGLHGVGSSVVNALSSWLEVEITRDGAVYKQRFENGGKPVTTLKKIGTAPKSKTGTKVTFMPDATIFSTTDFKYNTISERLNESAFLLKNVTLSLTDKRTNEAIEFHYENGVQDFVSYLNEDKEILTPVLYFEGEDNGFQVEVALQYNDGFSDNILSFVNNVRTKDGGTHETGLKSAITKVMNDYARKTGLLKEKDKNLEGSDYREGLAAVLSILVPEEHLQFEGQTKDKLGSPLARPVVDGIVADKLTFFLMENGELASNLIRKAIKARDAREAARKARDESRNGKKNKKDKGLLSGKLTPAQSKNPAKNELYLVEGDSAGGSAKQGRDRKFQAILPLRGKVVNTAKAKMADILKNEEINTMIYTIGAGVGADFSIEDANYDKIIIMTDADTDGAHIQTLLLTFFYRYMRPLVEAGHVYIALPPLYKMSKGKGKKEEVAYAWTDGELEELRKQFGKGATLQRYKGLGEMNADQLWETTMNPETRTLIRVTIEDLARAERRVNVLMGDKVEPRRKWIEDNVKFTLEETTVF

One assay concerns the target S. pneumoniae Topoisomerase IV ATPase (ParE) (Streptococcus pneumoniae serotype 4, UniProt Q59961). The assay is described as follows: S. pneumoniae Topoisomerase IV ATPase inhibition. The assay is classed as biochemical. The settings on record: values marked * are an average of two or more data points, 13 µM. The method, boiled down: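 ParE ATPase (1.25 nM) run with 160 μM ATP and 5 μg/ml sheared salmon sperm DNA in Tris pH 8.0, Mg2+, glycerol, DTT, Brij-35. Phosphate released read by malachite green/molybdate absorbance at 650 nm. IC50 from 10 compound concentrations; DMSO (2%) as 0% and EDTA (20 μM) as 100% inhibition.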
Consider `COc1ccc(C(=O)O)cc1-c1cnc(Nc2ccc(F)c(Cl)c2)nc1-n1ccc(C(F)(F)F)n1` [Example 1138, 3-(2-(3-chloro-4-fluorophenylamino)-4-(3-(trifluoromethyl)-1H-pyrazol-1-yl)pyrimidin-5-yl)-4-methoxybenzoic acid], for which the “% Inh (13 μM) of S. pneumoniae Topoisomerase IV ATPase” value is 94%.

Staying with this assay, now noted: values marked * are an average of two or more data points, read-out: % Inh (13 μM) of S. pneumoniae Topoisomerase IV ATPase.
For the compound `COc1cc(Nc2ncc(-c3cnc(-n4cccn4)c(C(=O)O)c3)c(-n3ccc(C(F)(F)F)n3)n2)cc(OC)c1` [Example 589, 5-(2-(3,5-dimethoxyphenylamino)-4-(3-(trifluoromethyl)-1H-pyrazol-1-yl)pyrimidin-5-yl)-2-(1H-pyrazol-1-yl)nicotinic acid], the inhibition at 13 µM was found to be 100%.

With `CONC(=O)c1cc(-c2cnc(Nc3cc(OC)cc(OC)c3)nc2-n2ccc(C(F)(F)F)n2)cnc1OC` [Example 811, 5-{2-[(3,5-dimethoxyphenyl)amino]-4-[3-(trifluoromethyl)-1H-pyrazol-1-yl]pyrimidin-5-yl}-N,2-dimethoxypyridine-3-carboxamide], the inhibition at 13 µM amounted to 100%.

Regarding `O=C(O)c1cncc(-c2cnc(Nc3ccc(F)c(Cl)c3)nc2N2CCOCC2)c1` [Example 273, 5-(2-(3-chloro-4-fluorophenylamino)-4-morpholinopyrimidin-5-yl)nicotinic acid], the inhibition at 13 µM is 94.4%.

For `CCOC(=O)c1cncc(-c2cnc(Nc3ccc(F)c(Cl)c3)nc2N[C@@H]2CCOC2)c1` [Example 146, (R)-ethyl 5-(2-(3-chloro-4-fluorophenylamino)-4-(tetrahydrofuran-3-ylamino)pyrimidin-5-yl)nicotinate], the inhibition at 13 µM was found to be 79.7%.

In the case of `O=C(O)c1cncc(-c2cnc(Nc3ccc(F)c(Cl)c3)nc2NCCCN2CCCC2=O)c1` [Example 219, 5-{2-(3-Chloro-4-fluoro-phenylamino)-4-[3-(2-oxo-pyrrolidin-1-yl)-propylamino]-pyrimidin-5-yl}-nicotinic acid], the inhibition at 13 µM turned out to be 79%.

For the compound `COc1cc(Nc2ncc(-c3cncnc3)c(NCCc3ccncc3)n2)cc(OC)c1` [Example 354, N^2-(3,5-dimethoxyphenyl)-N^4-(2-(pyridin-4-yl)ethyl)-5,5′-bipyrimidine-2,4-diamine], the inhibition at 13 µM was found to be 80.5%.

In the case of `Cc1cc(C(F)(F)F)nn1-c1nc(Nc2cc(F)cc(F)c2)ncc1-c1cncc(C(=O)O)c1` [Example 640, 5-{2-[(3,5-difluorophenyl)amino]-4-[5-methyl-3-(trifluoromethyl)-1H-pyrazol-1-yl]pyrimidin-5-yl}pyridine-3-carboxylic acid], the inhibition at 13 µM was 100%.

Turning to `Cc1cc(C)cc(Nc2ncc(-c3cc(C(=O)O)c(=O)n(C)c3)c(-n3ccc(C(F)(F)F)n3)n2)c1` [Example 922, 5-(2-(3,5-dimethylphenylamino)-4-(3-(trifluoromethyl)-1H-pyrazol-1-yl)pyrimidin-5-yl)-1-methyl-2-oxo-1,2-dihydropyridine-3-carboxylic acid], the inhibition at 13 µM was 100%.

With `Cc1nccn1-c1nc(Nc2ccc(F)c(Cl)c2)ncc1-c1cncc(C(=O)O)c1` [Example 310, 5-{2-[(3-chloro-4-fluorophenyl)amino]-4-(2-methyl-1H-imidazol-1-yl)pyrimidin-5-yl}pyridine-3-carboxylic acid], the inhibition at 13 µM was 80%.

On to `O=C(O)c1cc(-c2cnc(Nc3ccc(F)c(Cl)c3)nc2-n2ccc(C(F)(F)F)n2)cn(CCO)c1=O` [Example 1083, 5-(2-(3-Chloro-4-fluorophenylamino)-4-(3-(trifluoromethyl)-1H-pyrazol-1-yl)pyrimidin-5-yl)-1-(2-hydroxyethyl)-2-oxo-1,2-dihydropyridine-3-carboxylic acid], for which the inhibition at 13 µM was found to be 99%.

For `CCn1cc(-c2cnc(Nc3cc(C)cc(OC)c3)nc2-n2nc(C(F)(F)F)cc2C)cc(C(=O)O)c1=O` [Example 863, 1-ethyl-5-{2-[(3-methoxy-5-methylphenyl)amino]-4-[5-methyl-3-(trifluoromethyl)-1H-pyrazol-1-yl]pyrimidin-5-yl}-2-oxo-1,2-dihydropyridine-3-carboxylic acid], the inhibition at 13 µM worked out at 100%.

Take `CCOC(=O)c1cncc(-c2cnc(Nc3ccc(F)c(Cl)c3)nc2N2CCC(N3CCOCC3)CC2)c1` [Example 119, ethyl 5-[2-[(3-chloro-4-fluorophenyl)amino]-4-(4-morpholin-4-ylpiperidin-1-yl)pyrimidin-5-yl]pyridine-3-carboxylate]: the inhibition at 13 µM was found to be 32%.

In the case of `Nc1cc(C(=O)O)cc(-c2cnc(Nc3ccc(F)c(Cl)c3)nc2N2CCOCC2)c1` [Example 491, 3-amino-5-{2-[(3-chloro-4-fluorophenyl)amino]-4-(morpholin-4-yl)pyrimidin-5-yl}benzoic acid], the inhibition at 13 µM worked out at 87%.

For the compound `CS(=O)(=O)c1cc(Nc2ncc(-c3cccc(/C=C/C(=O)O)c3)c(-n3ccc(C(F)(F)F)n3)n2)ccc1F` [Example 1115, (E)-3-(3-(2-(4-fluoro-3-(methylsulfonyl)phenylamino)-4-(3-(trifluoromethyl)-1H-pyrazol-1-yl)pyrimidin-5-yl)phenyl)acrylic acid], the inhibition at 13 µM is 93%.

Consider `CCOC(=O)CNc1nc(Nc2ccc(F)c(Cl)c2)ncc1-c1cncnc1` [Example 54, ethyl 2-[[2-[(3-chloro-4-fluorophenyl)amino]-5-pyrimidin-5-ylpyrimidin-4-yl]amino]acetate], for which the inhibition at 13 µM came out at 77.5%.

For the compound `O=C(O)c1cncc(-c2cnc(Nc3ccc(F)c(Cl)c3)nc2N2CCCCC2)c1` [Example 275, 5-(2-(3-chloro-4-fluorophenylamino)-4-(piperidin-1-yl)pyrimidin-5-yl)nicotinic acid], the inhibition at 13 µM worked out at 134%.

For `CCOC(=O)c1cncc(-c2cnc(Nc3ccc(F)c(Cl)c3)nc2NC(C)C)c1` [Example 116, ethyl 5-[2-[(3-chloro-4-fluorophenyl)amino]-4-(propan-2-ylamino)pyrimidin-5-yl]pyridine-3-carboxylate], the inhibition at 13 µM worked out at 82%.

For `O=C(O)/C=C/c1cccc(-c2cnc(Nc3cccc(F)c3)nc2-n2ccc(C(F)(F)F)n2)c1` [Example 621, (2E)-3-(3-{2-[(3-fluorophenyl)amino]-4-[3-(trifluoromethyl)-1H-pyrazol-1-yl]pyrimidin-5-yl}phenyl)prop-2-enoic acid], the inhibition at 13 µM amounted to 100%.

Regarding `CN(C)CCCNc1nc(Nc2ccc(F)c(F)c2)ncc1-c1ccc(C(=O)O)s1` [Example 335, 5-(2-(3,4-difluorophenylamino)-4-(3-(dimethylamino)propylamino)pyrimidin-5-yl)thiophene-2-carboxylic acid], the inhibition at 13 µM was 76.5%.

With `O=C(O)/C=C/c1cccc(-c2cnc(Nc3ccc(F)c(Cl)c3)nc2-n2cnc(Cl)c2Cl)c1` [Example 331, (2E)-3-(3-{2-[(3-chloro-4-fluorophenyl)amino]-4-(4,5-dichloro-1H-imidazol-1-yl)pyrimidin-5-yl}phenyl)prop-2-enoic acid], the inhibition at 13 µM turned out to be 59.8%.

Turning to `CN(C)CCCNc1nc(Nc2ccc(F)c(Cl)c2)ncc1-c1cccc(/C=C/C(=O)O)c1` [Example 29, (2E)-3-[3-(2-[(3-chloro-4-fluorophenyl)amino]-4-{[3-(dimethylamino)propyl]-amino}pyrimidin-5-yl)phenyl]prop-2-enoic acid], the inhibition at 13 µM is 99.7%.

As to `CON(C)C(=O)c1cccc(-c2cnc(Nc3ccc(F)c(Cl)c3)nc2-n2ccc(C(F)(F)F)n2)c1` [Example 1149, 3-(2-(3-chloro-4-fluorophenylamino)-4-(3-(trifluoromethyl)-1H-pyrazol-1-yl)pyrimidin-5-yl)-N-methoxy-N-methylbenzamide], the inhibition at 13 µM is 100%.

As to `COc1cc(Nc2ncc(-c3cnc(OCCCS(C)(=O)=O)c(C(=O)NS(C)(=O)=O)c3)c(-n3nc(C(F)(F)F)cc3C)n2)cc(OC)c1` [Example 970, 5-(2-(3,5-dimethoxyphenylamino)-4-(5-methyl-3-(trifluoromethyl)-1H-pyrazol-1-yl)pyrimidin-5-yl)-N-(methylsulfonyl)-2-(3-(methylsulfonyl)propoxy)nicotinamide], the inhibition at 13 µM came to 100%.

In the case of `COc1ncc(-c2cnc(Nc3ccc(F)c(Cl)c3)nc2NCCc2ccncc2)cn1` [Example 461, N^2-(3-chloro-4-fluorophenyl)-2′-methoxy-N^4-[2-(pyridin-4-yl)ethyl]-5,5′-bipyrimidine-2,4-diamine], the inhibition at 13 µM is 100%.

On to `O=C(O)/C=C/c1cccc(-c2cnc(Nc3ccc(F)c(Cl)c3)nc2-n2nc3cccnc3n2)c1` [Example 334, (2E)-3-(3-{2-[(3-chloro-4-fluorophenyl)amino]-4-(2H-[1,2,3]triazolo[4,5-b]pyridin-2-yl)pyrimidin-5-yl}phenyl)prop-2-enoic acid], for which the inhibition at 13 µM was found to be 104%.

For `O=C(O)c1cncc(-c2cnc(Nc3ccc(F)c(Cl)c3)nc2NCCN2CCOCC2)c1` [Example 227, 5-[2-(3-Chloro-4-fluoro-phenylamino)-4-(2-morpholin-4-yl-ethylamino)-pyrimidin-5-yl]-nicotinic acid], the inhibition at 13 µM was 79%.

On to `COc1cc(Nc2ncc(-c3cncc(C(=O)NCCO)c3)c(-n3nc(C(F)(F)F)cc3C)n2)cc(OC)c1` [Example 683, 5-{2-[(3,5-dimethoxyphenyl)amino]-4-[5-methyl-3-(trifluoromethyl)-1H-pyrazol-1-yl]pyrimidin-5-yl}-N-(2-hydroxyethyl)pyridine-3-carboxamide], for which the inhibition at 13 µM is 100%.

Consider `Cc1cc(C(F)(F)F)nn1-c1nc(Nc2ccc3c(c2)OCO3)ncc1-c1cncc(C(=O)O)c1` [Example 671, 5-{2-(1,3-benzodioxol-5-ylamino)-4-[5-methyl-3-(trifluoromethyl)-1H-pyrazol-1-yl]pyrimidin-5-yl}pyridine-3-carboxylic acid], for which the inhibition at 13 µM came to 92%.
